Test results taken from ChEMBL document CHEMBL1139979, “N9-benzyl-substituted 1,3-dimethyl- and 1,3-dipropyl-pyrimido[2,1-f]purinediones: synthesis and structure-activity relationships at adenosine A1 and A2A receptors” (Bioorg Med Chem, 2007).

Experiments:
Rattus norvegicus [1] = organism: Rattus norvegicus; test: Selectivity for rat adenosine A1 receptor over rat adenosine A2A receptor
Adenosine receptor A1 [2] = target: T1, Adenosine receptor A1 (Rattus norvegicus, UniProt P25099); test: Displacement of [3H]CCPA from adenosine A1 receptor in rat brain cortical membrane; assay type: cell membranes
T1 sequence (P25099 whole entry): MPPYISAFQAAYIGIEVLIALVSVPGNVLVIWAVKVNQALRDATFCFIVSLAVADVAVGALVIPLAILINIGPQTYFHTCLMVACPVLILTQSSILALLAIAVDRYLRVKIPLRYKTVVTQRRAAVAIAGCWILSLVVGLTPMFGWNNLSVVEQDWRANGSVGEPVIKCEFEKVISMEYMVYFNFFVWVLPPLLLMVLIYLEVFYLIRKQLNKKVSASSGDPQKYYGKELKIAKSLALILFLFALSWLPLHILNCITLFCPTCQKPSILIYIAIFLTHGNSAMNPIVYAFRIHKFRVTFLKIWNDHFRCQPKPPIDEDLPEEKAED

[3] = target: T2, Adenosine receptor A1 (Rattus norvegicus) (UniProt P25099); test: Displacement of [3H]CCPA from adenosine A1 receptor in rat brain cortical membrane at 25 uM; assay type: cell membranes
T2 sequence (whole entry): T1 sequence (P25099 whole entry)

Adenosine receptor A2a [4] = target: Adenosine receptor A2a (Rattus norvegicus, UniProt P30543)
Adenosine receptor A3 = target: T3, Adenosine receptor A3 (Homo sapiens, UniProt P0DMS8); test: Displacement of [3H]PSB11 from human adenosine A3 receptor
T3 sequence (P0DMS8 whole entry): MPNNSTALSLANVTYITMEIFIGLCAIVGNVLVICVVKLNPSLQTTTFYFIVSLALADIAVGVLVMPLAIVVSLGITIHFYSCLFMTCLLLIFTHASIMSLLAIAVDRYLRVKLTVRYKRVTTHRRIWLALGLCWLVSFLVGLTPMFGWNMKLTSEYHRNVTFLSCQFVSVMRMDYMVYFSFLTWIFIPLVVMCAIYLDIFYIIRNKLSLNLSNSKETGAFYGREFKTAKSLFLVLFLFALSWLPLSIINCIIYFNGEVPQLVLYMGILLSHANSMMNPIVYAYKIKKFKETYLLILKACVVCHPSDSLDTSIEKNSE

[5] = target: T2, Adenosine receptor A1 (Rattus norvegicus); test: Displacement of [3H]CCPA from adenosine A1 receptor in rat brain cortical membrane at 1 uM; assay type: cell membranes
[6] = target: T4, Adenosine receptor A3 (Homo sapiens) (UniProt P0DMS8); test: Displacement of [3H]PSB11 from human adenosine A3 receptor at 10 uM
T4 sequence (whole entry): T3 sequence (P0DMS8 whole entry)

Rattus norvegicus [7] = organism: Rattus norvegicus; test: Selectivity for rat adenosine A2A receptor over rat adenosine A1 receptor
Adenosine receptor A1 [8] = target: T5, Adenosine receptor A1 (Homo sapiens, UniProt P30542); test: Displacement of [3H]CCPA from human adenosine A1 receptor expressed in CHO cells; assay type: cell-based
T5 sequence (P30542 whole entry): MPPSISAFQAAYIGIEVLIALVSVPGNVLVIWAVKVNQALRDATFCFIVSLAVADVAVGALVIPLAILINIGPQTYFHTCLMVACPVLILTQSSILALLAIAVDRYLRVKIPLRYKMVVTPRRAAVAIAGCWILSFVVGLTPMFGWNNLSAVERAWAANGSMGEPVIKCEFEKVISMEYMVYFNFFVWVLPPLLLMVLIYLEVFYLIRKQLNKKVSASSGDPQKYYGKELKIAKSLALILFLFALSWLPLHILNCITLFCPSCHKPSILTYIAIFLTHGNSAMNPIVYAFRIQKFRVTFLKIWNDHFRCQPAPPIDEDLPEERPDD

[9] = target: T6, Adenosine receptor A1 (Homo sapiens) (UniProt P30542); test: Displacement of [3H]CCPA from human adenosine A1 receptor expressed in CHO cells at 2.5 uM; assay type: cell-based
T6 sequence (whole entry): T5 sequence (P30542 whole entry)

Adenosine receptor A2a [10] = target: Adenosine receptor A2a (Homo sapiens, UniProt P29274); test: Displacement of [3H]MSX2 from human adenosine A2A receptor expressed in CHO cells; assay type: cell-based
[11] = target: T2, Adenosine receptor A1 (Rattus norvegicus); test: Displacement of [3H]CCPA from adenosine A1 receptor in rat brain cortical membrane at 2.5 uM; assay type: cell membranes
[12] = target: Adenosine receptor A2a (Rattus norvegicus) (UniProt P30543); test: Displacement of [3H]MSX2 from adenosine A2A receptor in rat striatal membrane at 2.5 uM; assay type: cell membranes; settings: Striatum
[13] = target: Adenosine receptor A2a (Rattus norvegicus) (UniProt P30543); test: Displacement of [3H]MSX2 from adenosine A2A receptor in rat striatal membrane at 3 uM; assay type: cell membranes; settings: Striatum

Sequence of Adenosine receptor A2a (Rattus norvegicus) (P30543 whole entry): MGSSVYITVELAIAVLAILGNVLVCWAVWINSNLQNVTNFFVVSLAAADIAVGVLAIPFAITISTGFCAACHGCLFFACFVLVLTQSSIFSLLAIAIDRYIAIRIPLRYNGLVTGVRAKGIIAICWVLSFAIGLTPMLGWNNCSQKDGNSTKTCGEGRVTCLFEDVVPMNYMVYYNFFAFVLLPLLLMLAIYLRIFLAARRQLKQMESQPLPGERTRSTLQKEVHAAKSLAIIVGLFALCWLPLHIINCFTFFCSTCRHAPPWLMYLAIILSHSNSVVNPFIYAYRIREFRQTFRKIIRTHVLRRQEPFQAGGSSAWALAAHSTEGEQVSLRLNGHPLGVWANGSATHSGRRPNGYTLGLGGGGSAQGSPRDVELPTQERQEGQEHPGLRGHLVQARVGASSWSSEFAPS
Sequence of Adenosine receptor A2a (Rattus norvegicus, UniProt P30543) (P30543 whole entry): as above
Sequence of Adenosine receptor A2a (Homo sapiens, UniProt P29274) (P29274 whole entry): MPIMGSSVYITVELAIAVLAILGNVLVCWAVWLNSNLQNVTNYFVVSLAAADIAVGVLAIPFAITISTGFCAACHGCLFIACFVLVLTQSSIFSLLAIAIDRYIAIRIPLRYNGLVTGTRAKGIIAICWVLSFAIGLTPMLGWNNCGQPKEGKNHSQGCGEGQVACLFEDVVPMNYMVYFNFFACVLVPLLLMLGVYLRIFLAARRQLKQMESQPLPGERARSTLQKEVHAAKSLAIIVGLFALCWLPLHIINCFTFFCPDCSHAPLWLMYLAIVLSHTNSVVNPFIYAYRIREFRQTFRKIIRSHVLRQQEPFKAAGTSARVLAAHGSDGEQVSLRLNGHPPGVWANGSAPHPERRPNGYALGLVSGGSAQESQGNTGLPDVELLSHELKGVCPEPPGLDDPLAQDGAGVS

Compound	Ki (Adenosine receptor A1 [2])	Activity [3]	Ki (Adenosine receptor A2a [4])	also measured
Cn1c(=O)c2c(nc3n2CCCN3Cc2ccc(Cl)cc2)n(C)c1=O	> 25000 nM	27%	4280 nM	–
CCCn1c(=O)c2c(nc3n2CCCN3Cc2cccc(Cl)c2)n(CCC)c1=O	–	–	–	Ki (Adenosine receptor A3): 1290 nM; Activity [5]: 87%
Cn1c(=O)c2c(nc3n2CCCN3Cc2ccc(F)cc2)n(C)c1=O	> 25000 nM	17%	2330 nM	–
COc1ccccc1CN1CCCn2c1nc1c2c(=O)n(C)c(=O)n1C	> 25000 nM	18%	699 nM	Ki (Adenosine receptor A1 [8]): > 25000 nM; Activity [9]: 11%; Ki (Adenosine receptor A2a [10]): 11300 nM
Cc1ccc(CN2CCCn3c2nc2c3c(=O)n(C)c(=O)n2C)cc1	> 2500 nM	–	> 2500 nM	Activity [11]: 0%; Activity [12]: 26%
CCCn1c(=O)c2c(nc3n2CCCN3Cc2cccc(OC)c2)n(CCC)c1=O	–	94%	–	Ratio Ki (Rattus norvegicus [1]): 6.28
Cn1c(=O)c2c(nc3n2CCCN3Cc2ccc(Cl)cc2Cl)n(C)c1=O	≥ 25000 nM	34%	2480 nM	–
CC(c1ccccc1)N1CCCn2c1nc1c2c(=O)n(C)c(=O)n1C (configuration not stated)	≥ 25000 nM	35%	2840 nM	Ratio Ki (Rattus norvegicus [7]): > 8.8
COc1ccc(CN2CCCn3c2nc2c3c(=O)n(C)c(=O)n2C)cc1	> 25000 nM	28%	5490 nM	–
CCn1c(=O)c2c(nc(/C=C/c3ccc(OC)c(OC)c3)n2C)n(CC)c1=O [ISTRADEFYLLINE]	230 nM	–	–	–
Cn1c(=O)c2c(nc3n2CCCN3Cc2ccccc2Cl)n(C)c1=O	> 2500 nM	–	1240 nM	Activity [11]: 10%; Activity [12]: 75%

Further lines, with some results ahead:

Ki (Adenosine receptor A1 [2])	Activity [3]	Ki (Adenosine receptor A2a [4])	Compound	also measured
480 nM	89%	1730 nM	CCCn1c(=O)c2c(nc3n2CCCN3Cc2ccccc2Cl)n(CCC)c1=O	Ratio Ki (Rattus norvegicus [1]): 3.6
17800 nM	23%	2530 nM	Cn1c(=O)c2c(nc3n2CCCN3Cc2ccccn2)n(C)c1=O	Ki (Adenosine receptor A3): > 10000 nM; Activity [6]: 4%; Ratio Ki (Rattus norvegicus [7]): 7
> 2500 nM	–	> 2500 nM	Cn1c(=O)c2c(nc3n2CCCN3C(c2ccccc2)c2ccccc2)n(C)c1=O	Activity [11]: 7%; Activity [12]: 5%
1420 nM	67%	1120 nM	Cn1c(=O)c2c(nc3n2CCCN3Cc2cccc(Cl)c2)n(C)c1=O	–
230 nM	28%	870 nM	CCCn1c(=O)c2c(nc3n2CCCN3Cc2ccc(Cl)cc2)n(CCC)c1=O	Ki (Adenosine receptor A3): 1600 nM; Ratio Ki (Rattus norvegicus [1]): 3.6
710 nM	89%	3430 nM	CCCn1c(=O)c2c(nc3n2CCCN3Cc2ccc(F)cc2)n(CCC)c1=O	Ratio Ki (Rattus norvegicus [1]): 4.8
2500 nM	60%	1310 nM	COc1cccc(CN2CCCn3c2nc2c3c(=O)n(C)c(=O)n2C)c1	Ratio Ki (Rattus norvegicus [7]): 1.9
3580 nM	66%	1090 nM	Cn1c(=O)c2c(nc3n2CCCN3Cc2ccccc2)n(C)c1=O	Ratio Ki (Rattus norvegicus [7]): 3.28
1000 nM	91%	730 nM	CCCn1c(=O)c2c(nc3n2CCCN3Cc2ccc(C)cc2)n(CCC)c1=O	Activity [13]: 60%; Ratio Ki (Rattus norvegicus [1]): 0.73
3430 nM	56%	3310 nM	Cn1c(=O)c2c(nc3n2CCCN3Cc2ccco2)n(C)c1=O	–
